# From US11203582B2, “Benzamide derivatives for inhibiting endoplasmic reticulum (ER) stress” (The Board of Regents of the University of Oklahoma, priority 2017, dated 2021)
# Read-outs that look alike come from different tables or passages of the source.
# What was measured:
# Assay type in all cases: cell-based, rat
# INS-1 cells = experiment: Cell survival assay, intracellular ATP (CellTiter-Glo), INS-1 cells treated with Tm
# Experimental: A structure-activity-relationship (SAR) study was thus conducted to improve the weak potency of lead compound 1. Newly synthesized or commercially available compounds were tested for their β-cell-protective activity against ER stress in rat INS-1 β-cells. […] The maximum activities and the concentrations that reach half-maximal activity (EC50) of the compounds were evaluated by the degree of increase in viability of INS-1 cells co-treated with the compounds in the presence of Tm compared with Tm treatment alone. Maximum activity value in the tables is reported as % rescue from Tm (0.1 μg/mL)-induced reduction of cell viability. The values for Tm treatment alone and control (DMSO, without Tm) treatment are designated as 0% and 100%, respectively in all tables. EC50 values (the concentrations that reach half-maximal activity) for INS-1 cell viability were calculated with GraphPad Prism from the data of ten 2-fold serial titration points in all tables. All experiments were performed in triplicate in all tables.
# INS-1 cells were cultured in RPMI 1640 (Corning, N.Y., USA) supplemented with 10% FBS (Atlanta Biologicals, Norcross, Ga.), HEPES (10 mM, Life Technologies, CA, USA), sodium pyruvate (1 mM, Corning), 2-mercaptoethanol (50 μM, Sigma, St Louis, Mo., USA) and antibiotics (100 UI/mL penicillin and 100 μg/mL streptomycin, Corning). βTC6 cells were cultured in DMEM (Corning) with 15% FBS, sodium pyruvate (1 mM, Corning), non-essential amino acids (1 mM, Thermo, Ill., USA), GlutaMAX (1 mM, Life Technologies) and antibiotics (100 UI/mL penicillin and 100 μg/mL streptomycin). All cells were grown at 37° C. in a humidified 5% CO2 atmosphere.
# INS-1 cells or βTC6 cells were seeded at 3×10^3 cells/well in a 384-well plate and treated with compounds at the indicated concentrations. After 3 d treatment, the medium was aspirated and 20 μL/well of CellTiter-Glo reagent (Promega, WI, USA) was added for the detection of intracellular ATP levels. Cell viability was measured with an EnVision multilabel plate reader (PerkinElmer, MA, USA).
# PDX1 mRNA = experiment: qRT-PCR of PDX1 mRNA in Tm-treated INS-1 cells; conditions: Tm co-treatment, 24 h
# Experimental: (A-D) INS-1 cells were treated with or without Tm (0.1 m/mL) in the presence of 13d at indicated concentrations or DMSO for 24 h. The mRNA levels of INS1 (A), INS2 (B), PDX1 (C), and MafA (D), were analyzed by qRT-PCR. Relative mRNA levels were normalized against the housekeeping gene Cyclophilin A using the comparative CT method. The results are the means of 3 replicate wells and are representative of 3 independent experiments. * P<0.05 and ** P<0.01 compared with Tm treatment alone. Bars indicate SD. (E) Insulin secretion by INS-1 cells incubated with 1.7 mM and 20 mM glucose in the presence or absence of Tm (0.1 μg/mL) and 13d. Secreted insulin was measured by ELISA after 24 h treatment. * P<0.05. The amount of insulin secreted in response to 1.7 mM glucose in the absence of Tm was set to 1.0 and was normalized with total protein concentration.
# (§1) INS-1 cells were seeded at 4×10^5 cells/well in 6-well plates and treated with compounds for the indicated times. […] Relative mRNA levels were normalized against the housekeeping gene Cyclophilin A and were determined by ΔΔCt calculated from the difference in ΔCt values between the target gene and Cyclophilin A with and without treatment, based on comparative CT (cycle threshold) method. […]
# GRP94 mRNA = experiment: qRT-PCR of GRP94 mRNA in Tm-treated INS-1 cells; conditions: Tm 0.1 μg/mL co-treatment, 8 h
# Experimental: INS-1 cells were treated with or without Tm (0.1 μg/mL) in the presence of 13d or DMSO for 8 h. Bip (A) and GRP94 (B) mRNA levels were analyzed by qRT-PCR. Relative mRNA levels were normalized against the housekeeping gene Cyclophilin A using the comparative CT method. The results are the means of 3 replicate wells and representative of 3 independent experiments. ** P<0.01 compared with Tm treatment alone. Error bars indicate SD.
# We then investigated the effects of 13d on the activation of ATF6 in β-cells under ER stress. Activated ATF6 acts as a homodimer or as an ATF6-XBP1s heterodimer to control the up-regulation of select UPR target genes including the chaperone proteins BiP and GRP94. Therefore, these two chaperone proteins were evaluated in the INS-1 cells in the presence of Tm.
# as §1, with “times. Total RNA was extracted using TRIzol reagent (Invitrogen, Carlsbad, Calif.) according to the manufacturer's protocol, and 2 μg of total RNA was reverse transcribed using a Superscript kit (Invitrogen).” for “times.”
smiles,measurement,setting,value
"O=C(NCc1ccc(C(F)(F)F)cc1)c1cccc(CN2CCCCC2)c1 [Compound 13d, N-(4-trifluoromethylphenmethyl)-3-(N-piperidinyl)methyl benzamide]",range of concentrations retaining maximum β-cell-protective activity,"INS-1 cells; INS-1 cells, Tm 0.1 μg/mL, 72 h, FIG. 2A",0.16 to 20 µM
same,maximum activity (β-cell-protective activity),"INS-1 cells; INS-1 cells, Tm-induced ER stress",~100%
same,EC50,"INS-1 cells; INS-1 cells, Tm-induced ER stress, read-out: EC50",32 nM
same,effect of compound on its own on β-cell viability,"INS-1 cells; INS-1 cells, no Tm, 72 h, FIG. 2D",no effect
same,Maximum activity (% rescue),"INS-1 cells; Table 5, INS-1 cells, Tm 0.1 μg/mL, 72 h, Tm alone 0%, DMSO control 100%",97% ± 8%
same,viability of INS-1 β-cells under Tm treatment (intracellular ATP),"INS-1 cells; Tm 0.1 μg/mL, 72 h, FIG. 2A",rescued the viability of INS-1 β-cells under Tm treatment in a dose-dependent manner
same,EC50,"INS-1 cells; running text b108, read-out: EC50 value against ER stress",~30 nM
same,Tm-decreased PDX1 mRNA expression level,PDX1 mRNA,completely rescued
same,Tm-induced up-regulation of GRP94 mRNA,GRP94 mRNA,almost completely reversed
